Source: ChEMBL document CHEMBL2406915, “Antimalarial and cytotoxic activities of chiral triamines” (Bioorg Med Chem Lett, 2013)
In brackets after ≈: the same amount, converted by molar mass.

How the values were obtained:
[1] = Toxicity index, ratio of ED50 for human KB cells to ED50 for […] Plasmodium falciparum 3D7; assay type: cell-based; details: KB cells versus Plasmodium falciparum 3D7, read-out: Ratio ED50
[2] = Cytotoxicity against human KB cells; assay type: cell-based; details: read-out: ED50 (the source's name)
Plasmodium falciparum = test: Antimalarial activity against […] Plasmodium falciparum 3D7; assay type: functional, organism-based; details: for EC50: read-out: ED50 (the source's name)

| SMILES | selectivity ratio [1] | CC50 [2] | EC50 (Plasmodium falciparum) | IC50 (Plasmodium falciparum) |
| --- | --- | --- | --- | --- |
| CNC[C@@H](Cc1ccccc1)NC[C@H](Cc1ccc2ccccc2c1)NCC1(c2ccccc2)CC1 | 2.36 | 0.52 µg/mL (≈ 1.09 µM) | 0.22 µg/mL (≈ 0.461 µM) |  |
| CNC[C@@H](Cc1ccccc1)NC[C@@H](Cc1ccc2ccccc2c1)NCC1CCC(C)CC1 (stereo not given in full) | 8.23 | 1.73 µg/mL (≈ 3.78 µM) | 0.22 µg/mL (≈ 0.481 µM) |  |
| CNC[C@H](Cc1ccc2ccccc2c1)NC[C@H](Cc1ccc2ccccc2c1)NCC1(c2ccccc2)CC1 | 43.5 | 2.18 µg/mL (≈ 4.13 µM) | 0.05 µg/mL (≈ 0.0947 µM) |  |
| CNC[C@H](Cc1ccc2ccccc2c1)NC[C@@H](Cc1ccc2ccccc2c1)NCC1CCC(C)CC1 (stereo not given in full) | 20.3 | 2.03 µg/mL (≈ 4 µM) | 0.1 µg/mL (≈ 0.197 µM) |  |
| CCOc1ccc(CCN[C@H](CN[C@@H](CNC)CC2CCCCC2)Cc2ccc3ccccc3c2)cc1 | 19.3 | 3.1 µg/mL (≈ 6.18 µM) | 0.16 µg/mL (≈ 0.319 µM) |  |
| CNC[C@H](Cc1ccc2ccccc2c1)NC[C@@H](Cc1ccc2ccccc2c1)NCCC1CCCCC1 | 17.7 | 1.6 µg/mL (≈ 3.15 µM) | 0.09 µg/mL (≈ 0.177 µM) |  |
| CNC[C@@H](CC1CCCCC1)NC[C@H](Cc1ccc2ccccc2c1)NCCC1CCCCC1 |  | 0.11 µg/mL (≈ 0.237 µM) | 0.11 µg/mL (≈ 0.237 µM) |  |
| CNC[C@@H](CC1CCCCC1)NC[C@@H](Cc1ccc2ccccc2c1)NCCC1CCCCC1 | 11.3 | 1.59 µg/mL (≈ 3.43 µM) | 0.14 µg/mL (≈ 0.302 µM) |  |
| CNC[C@@H](CC1CCCCC1)NC[C@@H](Cc1ccc2ccccc2c1)NCC(C)c1ccc(CC(C)C)cc1 (stereo not given in full) | 24.1 | 7.01 µg/mL (≈ 13.3 µM) | 0.29 µg/mL (≈ 0.549 µM) |  |
| C[C@H]1[C@H](OC(=O)CCC(=O)O)O[C@@H]2O[C@@]3(C)CC[C@H]4[C@H](C)CC[C@@H]1[C@@]24OO3 [ARTESUNATE] |  |  |  | 0.002 µg/mL (≈ 0.0052 µM) |
| CNC[C@@H](Cc1ccccc1)NC[C@@H](Cc1ccc2ccccc2c1)NCC1(c2ccccc2)CC1 | 5.46 | 1.53 µg/mL (≈ 3.2 µM) | 0.28 µg/mL (≈ 0.586 µM) |  |
| CNC[C@H](Cc1ccc2ccccc2c1)NC[C@H](Cc1ccc2ccccc2c1)NCCC1CCCCC1 | 88.5 | 1.77 µg/mL (≈ 3.49 µM) | 0.02 µg/mL (≈ 0.0394 µM) |  |
| CNC[C@@H](CC1CCCCC1)NC[C@H](Cc1ccc2ccccc2c1)NCC1(c2ccccc2)CC1 | 15.7 | 1.71 µg/mL (≈ 3.53 µM) | 0.11 µg/mL (≈ 0.227 µM) |  |
| CNC[C@H](Cc1ccc2ccccc2c1)NC[C@@H](Cc1ccc2ccccc2c1)NCCc1ccc(Cl)c(Cl)c1 | 23 | 5.53 µg/mL (≈ 9.69 µM) | 0.24 µg/mL (≈ 0.421 µM) |  |
| CNC[C@@H](Cc1ccc2ccccc2c1)NC[C@H](Cc1ccc2ccccc2c1)NCC1(c2ccccc2)CC1 | 4.93 | 1.43 µg/mL (≈ 2.71 µM) | 0.29 µg/mL (≈ 0.549 µM) |  |
| CNC[C@@H](CC1CCCCC1)NC[C@H](Cc1ccc2ccccc2c1)NCC1CCC(C)CC1 (stereo not given in full) | 69 | 6.9 µg/mL (≈ 14.9 µM) | 0.1 µg/mL (≈ 0.216 µM) |  |
| CNC[C@H](Cc1ccc2ccccc2c1)NC[C@@H](Cc1ccc2ccccc2c1)NCC1(c2ccccc2)CC1 | 32 | 1.6 µg/mL (≈ 3.03 µM) | 0.05 µg/mL (≈ 0.0947 µM) |  |
| CCOc1ccc(CCN[C@H](CN[C@H](CNC)Cc2ccc3ccccc3c2)Cc2ccc3ccccc3c2)cc1 | 26 | 3.23 µg/mL (≈ 5.92 µM) | 0.12 µg/mL (≈ 0.22 µM) |  |
| CNC[C@H](Cc1ccc2ccccc2c1)NC[C@@H](Cc1ccc2ccccc2c1)NCC(C)c1ccc(CC(C)C)cc1 (stereo not given in full) | 13 | 1.71 µg/mL (≈ 2.99 µM) | 0.13 µg/mL (≈ 0.227 µM) |  |
| CNC[C@H](Cc1ccc2ccccc2c1)NC[C@H](Cc1ccc2ccccc2c1)NCC(C)c1ccc(CC(C)C)cc1 (stereo not given in full) | 11.6 | 2.09 µg/mL (≈ 3.65 µM) | 0.18 µg/mL (≈ 0.315 µM) |  |
| CNC[C@@H](CC1CCCCC1)NC[C@@H](Cc1ccc2ccccc2c1)NCCc1ccc(Cl)c(Cl)c1 | 19.2 | 4.23 µg/mL (≈ 8.03 µM) | 0.22 µg/mL (≈ 0.418 µM) |  |
